Reference: patent US20170239239A1, “Method for Inducing a Sustained Immune Response” (Immune Therapeutics Inc., priority 2016, published 2017)

Tests used:
[1] = system: fibromyalgia; assay: Study in ten women with fibromyalgia; type: in vivo, human
Source text: Baseline erythrocyte sedimentation rate predicted over 80% of the variance in drug response. […] Which confirms the ability of Immediate release naltrexone to decree pain and inflammation.

[2] = system: patients with AIDS; conditions: cited from earlier work
[3] = system: primary progressive multiple sclerosis (PPMS); assay: Six month phase II multicenter pilot trial in primary progressive multiple sclerosis, 40 patients; type: in vivo, human
Experimental: The primary end points were safety and tolerability. Secondary outcomes were efficacy on spasticity, pain, fatigue, depression, and quality of life. Clinical and biochemical evaluations were serially performed. Protein concentration of beta-endorphins (BE) and mRNA levels and allelic variants of the mu-opioid receptor gene (OPRM1) were analyzed.

[4] = system: autism; assay: Case reports, autism; conditions: child
[5] = system: MS patients; assay: Retrospective chart review of MS patients receiving LDN; type: in vivo, human
Source text: This study investigated the safety, tolerability, and benefits (fatigue, reduction) of LDN in patients with MS. It reviewed the number of patients who stopped taking LDN and if there were specific reasons for stopping the LDN. The frequency and variety of side effects that were specific to LDN use are reported. […] 1, 2005 and May 31, 2012. There were 215 MS patients having exposure to LDN during the time of this study. […] In addition to the assessment we review Brain MRIs and Spinal Cord MRIs that were obtained as part of the clinical status of the patient and standard of care.
It reviewed the number of patients who stopped taking IMMEDIATE RELEASE NALTREXONE (LDN) and if there were specific reasons for stopping the IMMEDIATE RELEASE NALTREXONE (LDN). […] 1, 2005 and May 31, 2012. […] In addition to the assessment we review Brain Mills and Spinal Cord MRIs that were obtained as part of the clinical status of the patient and standard of care.

[6] = system: lymphocyte subsets of autistic children; assay: Behavioral and immunological assessment in autism, double-blind naltrexone; parameters: species or system human; conditions: in vivo
Source text: Opioid-immune interactions in autism: behavioral and immunological assessment during a double-blind treatment with naltrexone.
Changes in natural killer cells and activity were inversely related to plasma beta-endorphin levels.

[7] = system: psoriatic arthritis; assay: Case report, psoriatic arthritis; type: in vivo, human
[8] = system: Crohn's disease; assay: Randomized placebo-controlled study in 40 subjects with active Crohn's disease; type: in vivo, human
Source text: Forty subjects with active Crohn's disease were enrolled in the study. […] Providers and patients were masked to treatment assignment. The primary outcome was the proportion of subjects in each arm with a 70-point decline in Crohn's Disease Activity Index score (CDAI). The secondary outcome included mucosal healing based upon colonoscopy appearance and histology.

[9] = system: Rheumatoid Arthritis; assay: Case reports, Rheumatoid Arthritis; type: in vivo, human
Experimental: A person diagnosed with Rheumatoid Arthritis in 2006 and was being treated with methotrexate and plaquenil but patients continued with pain and fatigue.
person two diagnosed 5 years ago with RA was treated with Methotrexate 25 mg per week and Remicade […] every 6 weeks, the fatigue and pain continued, along with the inflammation and general weakness. Sleep disturbed nightly due to pain in my shoulders and hips. Patient felt their life was not acceptable and none of the immunosuppression drugs were helping. […] Within two weeks patient stopped even ibuprophen. Rheumatoid factor has gone from 127 to 66 in 4 months and has stayed stable. […] Occasionally patient has pain but it is easily controlled with a normal dosage of ibuprophen.
A person, diagnosed with RA in 1999 stayed very active until 2005 on a combination of Methotrexate and Prednisone but was have difficulty maintaining their business due to fatigue and severe joint pain with deformity of their hands and elbows. Patient was told to increase their does and start a second immunomodulating drug. Patient no longer wanted to continue with immunosuppression drug or steroids due to the side effects.

[10] = system: patients with hematologic malignancies; conditions: cited from earlier work
[11] = system: Shingles; assay: Case report, shingles; type: in vivo, human; conditions: person; 4.5 mg nightly since 2013
Experimental: A person diagnosed with Shingles in 2010 over 18 months had 8 major outbreaks, and was treated with acyclovir, and valacyclovir, as the outbreaks continued they prescribed Lidocaine patches and pain medications.

[12] = system: Systemic Lupus; assay: Case reports, systemic lupus; conditions: person
[13] = system: pancreatic cancer cells: MIA-PaCa2, PANC1, and BxPC3; assay: Continuous 48 h exposure to naltrexone, pancreatic cancer cells
[14] = 3.0 mg daily at bedtime, 12 weeks, vs placebo

Structure (SMILES): O=C1CC[C@@]2(O)[C@H]3Cc4ccc(O)c5c4[C@@]2(CCN3CC2CC2)[C@H]1O5 [Immediate release naltrexone, naltrexone]
- reduction of fibromyalgia symptoms over placebo ([1]; 4.5 mg, entire cohort): greater than 30%
- Side effects (including insomnia and vivid dreams) ([1]; in vivo): rare
- mechanical and heat pain thresholds ([1]; laboratory visits): improved
- elevated levels of serum alpha interferon (IFN-α) ([2]; 1.75 mg nightly, 3-month double-blind period, vs placebo p<0.01): significant drop
- lymphocyte mitogen responses [2, 14]: declined on placebo and not on Immediate release naltrexone
- pathologically elevated levels of acid-labile alpha interferon [2, 14]: declined significantly
- incidence of opportunistic infections ([2]; 3.0 mg daily at bedtime, 12 weeks, placebo 5 out of 16 (31%)): 0 of the 22
- survival of patients who did not show a decline in IFN-a ([2]; 2 of the 15): 13%
- survival of patients who showed a decline in IFN-a ([2]; Nineteen of the 23): 83%
- mean IFN-a level after decline ([2]; from mean of 144.9 IU. over a 12-month period, 23 patients): 11.0 IU.
- side effects ([2]; human, in vivo): No side effects were noted
- major adverse events ([3]; 40 patients): two
- BE (beta-endorphins) concentration ([3]; during the trial): increased
- spasticity ([3]; end of the trial): significant reduction
- Neurological disability ([3]; human, in vivo): progressed in only one patient
- safety and tolerability ([3]; six months): safe and well tolerated
- language skills [4]: improved
- side effect [4]: a little constipation
- illness ([4]; continually sick before): has not been sick since starting
- hyperactivity ([4]; 3 mg): increased for the first three weeks
- social behaviors ([4]; 3 mg, over the next months): skyrocketed
- quality of life surveys: patients improved ([5]; human, in vivo): 83 patients
- quality of life surveys: patients stable ([5]; human, in vivo): 92 patients
- quality of life surveys: patients worse ([5]; human, in vivo): 9
- MRI scans showed improvement ([5]; of 215 patients): 14
- MRI scans stable ([5]; of 215 patients): 113
- MRI scans slightly worse ([5]; of 215 patients, new but inactive lesion(s)): 28
- quality of life ([5]; over a long period of time): improvement
- T-cytotoxic-suppressor (CD4− CD8+) [6]: significant reduction
- T-helper-inducers (CD4+ CD8−) [6]: significant increase
- use of other medication ([7]; person, 4.5 mg at bedtime, within 10 days): able to discontinue all paid medications as well as the Humira
- disease course ([7]; six months): the disease has stabilized and the progressive deterioration has stopped
- subjects with at least a 70-point decline in CDAI scores ([8]; 4.5-mg daily oral, placebo 40% (p=0.009)): Eighty-eight
- remission with a CDEIS score<6 ([8]; after 12 weeks, placebo 8%): 33%
- endoscopic response (5-point decline in CDEIS) ([8]; after 12 weeks, placebo 28% (p=0.008)): 78%
- Fatigue ([9]; person two): gone
- Rheumatoid factor ([9]; person two, 4.5 mg at bedtime, from 127 in 4 months): 66
- disease course ([9]; person, 4.5 mg with multi-part protocol, 7 years later): not advanced
- use of other medication ([9]; person, titrated to 4.5 mg, March of 2010): Successfully discontinued methotrexate
- EORTC QLQ-C30 social functioning vs placebo ([10]; 3 mg capsules daily plus routine treatment, one month follow-up (p<0.05)): better condition
- EORTC QLQ-C30 social functioning, role functioning, nausea and vomiting and appetite loss vs placebo ([10]; 3 mg daily, 3-month follow-up (all p-values<0.05)): better
- EORTC QLQ-C30 physical, social, role functioning, global quality of life, nausea and vomiting and appetite loss vs placebo ([10]; 3 mg daily, 5-month follow-up): significantly better
- blood laboratory tests ([10]; 3 mg daily): no changes
- white blood cell, red blood cell and plate count ([10]; 3 mg daily): remained stable
- shingles outbreaks [11]: not had a single outbreak
- mobility ([12]; 3 mg, within three weeks): improved mobility
- hospital stays ([12]; 4.5 mg, since March of 2013): no hospital stays
- ANA ([12]; for 7 years): normal
- Lupus status ([12]; liquid form titrated from 0.1 mg to 1.5 mg): in remission
- tolerability ([12]; started at 1.5 mg): unable to take it due to insomnia and pruritis
- effect on pancreatic cancer cells [13]: no effect
